The results in this text go back to patent US20200121618A1, “METHODS AND COMPOSITIONS FOR TREATMENT OF INFLAMMATION AND OXIDATIVE STRESS” (BIOELECTRON TECHNOLOGY CORPORATION, priority 2017, published 2020).

In series [1] the test system is Male C57BL/6 mice. Briefly: APAP-induced liver damage in mice, serum liver enzymes ALT and AST. The conditions noted are these: for mean serum concentration of liver enzyme (ALT) versus APAP alone: 300 mg/kg SC pre-dosing for 4 days. Format: in vivo. The protocol: Compounds described herein were tested to determine their effects on liver enzyme concentrations following introduction of APAP in sufficient quantity to cause liver trauma.
Male C57BL/6 mice (Charles River Laboratories), aged 10-12 weeks, were randomly and prospectively assigned to receive treatment with either a test compound or vehicle only. Prior to commencement of testing, the animals had been pre-dosed with a test compound of either EPI-A0001 ((RRR)-alpha tocopherol quinone) or EPI-743 (REE)-alpha tocotrienol quinone) via subcutaneous injection for 4 days at levels of 300 mg/kg body weight dose(s). One additional test compound was administrated at 4 hours prior to commencement of testing. The mice were fasted for 12 hours prior to being challenged with 300 mg/kg body weight with APAP or an equal volume of the dosing vehicle (sterile saline) via […].
The animals were each administered with a single subcutaneous (SC) 300 mg/kg body weight dose of APAP or vehicle only formulation as described herein. All animals were dosed at approximately the same time on the dosing day (±1 hour). Subcutaneous doses were administered via bolus injection between the skin and underlying layers of tissue in the scapular region on the back of each animal. The hair was not clipped from the injection site prior to dosing. The injection site was monitored for necrosis and other changes to the skin and hair.
At the time of sample collection, livers were collected for histopathology and metabolomics analyses and blood was collected for metabolomics analyses or separated into serum for the liver enzyme (AST, ALT) analyses.

The nature of series [2]: Miscibility / solubility description. Format: physicochemical.
Series [3] has as its system Human Aortic Endothelial Cells (HAEC). Briefly: Cell viability via normalized ATP levels in HAEC. Format: cell-based. As to conditions: higher dosing levels; 6 hours; Donors 486 and 662; FIGS. 13 and 14. The protocol: (§1) HAEC cells were cultured and used at passage 6. Cells were seeded in clear bottom, black wall 96-well tissue culture-treated polystyrene plates by resuspending a cell suspension at a density of 150,000 cells/mL in growth medium, then dispensing 100 microliters of cell suspension per well using an electronic multichannel pipette, corresponding to 15,000 cells/well (one plate per donor). The cell-containing plates were incubated 3 hours at 37° C. in an atmosphere with 95% humidity and 5% CO2 to allow attachment of the cells to the culture plate.
(§2) Test compounds were then added to varying final concentrations using the Tecan D300e Digital Dispenser, with subsequent back-filling with DMSO diluent to a final concentration of 0.6% (v/v). Cell plates were incubated for 20 hours at 37° C. in an atmosphere of 5% CO2 and 95% humidity.
FIGS. 7-14 present an expanded array of pro-inflammatory cytokines, including IL-6, IL-8, and TNFa (Tumor Necrosis Factor alpha). […] In these figures, GT is gamma-tocopherol, and DT is delta-tocopherol.

The subject of series [4] is Human Aortic Endothelial Cells (HAEC) stimulated with IL-1β. The series can be described thus: Suppression of cytokine release from IL-1β-stimulated endothelial cells (Meso Scale). Format: cell-based. As to conditions: for drop in levels of IL-6: versus DMSO control and alpha-tocopherol, Donors 1 and 2; for difference in cytokine suppression between diastereomers: A0001-RRR versus A0001-SRR. The protocol:
Human Aortic Endothelial Cells (HAEC) stimulated with IL-1β result in the secretion of pro-inflammatory cytokines IL-6, IL-8 and MCP-1 as described in Wu et al., Atherosclerosis 147, 297-307 (1999). The detection of these secreted cytokines in the presence or absence of compounds was performed using Meso Scale technology.
HAEC cells from two donors (Catalog no. 2535), EGM-2 media with BulletKit supplements (Catalog no. 3162) were purchased from Lonza. IL-1β (Catalog no. 200-01B) was purchased from Peprotech. Custom MSD U-plex plates with assays to detect IL-6, IL-8 and TNF-α (Catalog no. K15067L) were purchased from Meso Scale Discovery. The cells were grown in tissue culture-treated flasks according to Lonza's instructions.
Test samples were supplied in 1.5 mL glass vials. The compounds were diluted with an appropriate volume of DMSO to result in a 10 mM stock solution. Once dissolved, they were stored at −20° C.
as §1, §2
IL-1β was then added to a final concentration of 10 nanograms/mL and then cell plates were incubated at 37° C. in an atmosphere of 5% CO2 and 95% humidity for 6 hours. Media was collected in a separate polypropylene plate, foil sealed and frozen at −80° C. for up to 96 hours.
Frozen media samples were thawed on ice and IL-6, IL-8 and TNF-alpha were measured using the Meso Scale multiplex assay according to the manufacturer's instructions. Included on each MSD plate was a dilution of IL-6, IL-8 and TNF-alpha standards to accurately quantify the secreted proteins in the media.

Where [5] appears, read: 4 hours, APAP 300 mg/kg, FIG. 1.
Where [6] appears, read: 24 hours, 300 mg/kg SC pre-dosing, APAP 300 mg/kg, FIGS. 3 and 4.

With `CC1=C(C)C(=O)C(CCC(C)(O)CCCC(C)CCCC(C)CCCC(C)C)=C(C)C1=O` (stereo not drawn) [A0001, RRR-alpha tocopherol quinone], the “mean serum concentration of liver enzyme (ALT) versus APAP alone” value in series [1] (setting [5]) is reported as “reduction in mean serum concentrations”. In addition, the “mean serum concentration level of ALT and AST versus APAP alone (G4)” value in series [1] (setting [6]) is on record as “reduction in mean serum concentration level”. Besides, the “miscibility with other oils” value in series [2] was “infinitely miscible”. Also, in series [2], the “solubility in aqueous solvents” value is “practically insoluble”. In addition, the “effect on cell viability via normalized ATP levels” value in series [3] was “only a slight effect”. Also, the IL-6 suppression entry in series [4] (7.5 μM, 6 hours IL-1β) was “no longer evident”. Also, the “suppression of IL-6 levels” value in series [4] (15 μM, 6 hours IL-1β, compared with 60 μM and 30 μM) was “not as dramatic”. In addition, the “drop in levels of IL-6” value is on record as above 50% in series [4] (30 μM, 6 hours IL-1β) and above 50% in series [4] (60 μM, 6 hours IL-1β). For the same molecule, the “dose dependence of IL-6 suppression” value in series [4] (7.5-60 μM, 6 hours, FIGS. 5 and 6) is listed as “dosing dependent effect”. Moreover, the “difference in cytokine suppression between diastereomers” value in series [4] (6 hours, Donors 486 and 662) is listed as “small variation”. In addition, the “suppression of the various cytokines (IL-6, IL-8, TNFa)” value in series [4] (6 hours, Donors 486 and 662, FIGS. 7-12) is recorded as “dose dependent suppression”.

As for `CC(C)=CCC/C(C)=C/CC/C(C)=C/CCC(C)(O)CCC1=C(C)C(=O)C(C)=C(C)C1=O` (stereo not drawn) [EPI-743, REE-alpha tocotrienol quinone], the “mean serum concentration of liver enzyme (ALT) versus APAP alone” value in series [1] (setting [5]) was “reduction in mean serum concentrations”. For the same molecule, in series [1] (4 hours, 300 mg/kg SC pre-dosing, APAP 300 mg/kg, 3 of 10, FIG. 2), the “share of animals with AST levels near zero” value turned out to be 30%. Further, the “share of animals with ALT near zero” value in series [1] (4 hours, 300 mg/kg SC pre-dosing, APAP 300 mg/kg, 4 of 10, FIG. 1) stood at 40%. Further, in series [1] (setting [6]), the “individual ALT and AST data points” value is recorded as “several data points at or near zero”; the “mean serum concentration level of ALT and AST versus APAP alone (G4)” value was “reduction in mean serum concentration level”.

For the molecule `CC(=O)Nc1ccc(O)cc1` [APAP, Acetaminophen, reference compound], in series [1] (APAP 300 mg/kg alone (G3), 4 hours, FIG. 1), the “mean level of ALT in serum after APAP introduction” value was “approximately 3000 U/L”. Further, in series [1] (APAP 300 mg/kg alone (G3), 4 hours, FIG. 2), the “mean level of AST in serum after APAP introduction” value is recorded as around 3200 U/L.

For the molecule `CC1=C(C)C(=O)C(CC[C@@](C)(O)CCC[C@H](C)CCC[C@H](C)CCCC(C)C)=C(C)C1=O` [A0001-SRR], the “difference in cytokine suppression between diastereomers” value in series [4] (6 hours, Donors 486 and 662) is listed as “small variation”.
